Source: patent publication US10131652B2, “Pyrimidinyloxy benzene derivatives as herbicides” (E. I. DU PONT DE NEMOURS AND COMPANY, priority 2014, dated 2018)

Legend:
Assay type in all cases: in vivo
[1] = system: blackgrass (Alopecurus myosuroides); assay: Test B postemergence plant response
Outline: (§1)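 Injury was assessed visually about 10 days after treatment, scored from 0 (no effect) to 100 (complete control) by comparison with untreated controls. Test chemicals had been applied postemergence to potted plants at the one- to two-leaf stage, grown in loam soil and sand in a greenhouse.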

[2] = system: galium (catchweed bedstraw, Galium aparine); assay: Test B postemergence plant response
Outline: as §1

[3] = system: corn (Zea mays); assay: Test B pre-/postemergence plant response
Description: (§2) Seeds of plant species selected from bamyardgrass (Echinochloa crus-galli), kochia (Kochia scoparia), ragweed (common ragweed, Ambrosia elatior), Italian ryegrass (Lolium multiflorum), large (Lg) crabgrass (Digitaria sanguinalis), giant foxtail (Setaria faberii), momingglory (Ipomoea spp.), pigweed (Amaranthus retroflexus), velvetleaf (Abutilon theophrasti), wheat (Triticum aestivum), and corn (Zea mays) were planted into a blend of loam soil and sand and treated preemergence with a directed soil spray using test chemicals formulated in a non-phytotoxic solvent mixture which included a surfactant. At the same time, plants selected from these crop and weed species and also blackgrass (Alopecurus myosuroides), and galium (catchweed bedstraw, Galium aparine) were planted in pots containing the same blend of loam soil and sand and treated with postemergence applications of test chemicals formulated in the same manner. Plants ranged in height from 2 to 10 cm and were in the one- to two-leaf stage for the postemergence treatment. Treated plants and untreated controls were maintained in a greenhouse for approximately 10 days, after which time all treated plants were compared to untreated controls and visually evaluated for injury. Plant response ratings, summarized in Table B, are based on a 0 to 100 scale where 0 is no effect and 100 is complete control. A dash (-) response means no test result.

[4] = system: kochia (Kochia scoparia); assay: Test B pre-/postemergence plant response
Description: as §2

[5] = system: ragweed (common ragweed, Ambrosia elatior); assay: Test B pre-/postemergence plant response
Description: as §2

[6] = system: pigweed (Amaranthus retroflexus); assay: Test B pre-/postemergence plant response
Description: as §2

[7] = system: Italian ryegrass (Lolium multiflorum); assay: Test B pre-/postemergence plant response
Description: as §2

[8] = system: giant foxtail (Setaria faberii); assay: Test B pre-/postemergence plant response
Description: as §2

[9] = system: wheat (Triticum aestivum); assay: Test B pre-/postemergence plant response
Description: as §2

[10] = system: barnyardgrass (Echinochloa crus-galli); assay: Test B pre-/postemergence plant response
Description: as §2

[11] = system: small-flower umbrella sedge (Cyperus difformis); assay: Test C flooded paddy test plant response; conditions: Flood, 250 g ai/ha; scale of 0 to 100 where 0 is no effect and 100 is complete control; 13 to 15 days
Experimental: (§3) Plant species in the flooded paddy test selected from rice (Oryza sativa), small-flower umbrella sedge (Cyperus difformis), ducksalad (Heteranthera limosa), and bamyardgrass (Echinochloa crus-galli) were grown to the 2-leaf stage for testing. At time of treatment, test pots were flooded to 3 cm above the soil surface, treated by application of test compounds directly to the paddy water, and then maintained at that water depth for the duration of the test. Treated plants and controls were maintained in a greenhouse for 13 to 15 days, after which time all species were compared to controls and visually evaluated. Plant response ratings, summarized in Table C, are based on a scale of 0 to 100 where 0 is no effect and 100 is complete control. A dash (-) response means no test result.

[12] = system: rice (Oryza sativa); assay: Test C flooded paddy test plant response; conditions: Flood, 250 g ai/ha; scale of 0 to 100 where 0 is no effect and 100 is complete control; 13 to 15 days
Experimental: as §3

[13] = system: barnyardgrass (Echinochloa crus-galli); assay: Test C flooded paddy test plant response; conditions: Flood, 250 g ai/ha; scale of 0 to 100 where 0 is no effect and 100 is complete control; 13 to 15 days
Experimental: as §3

[14] = system: ducksalad (Heteranthera limosa); assay: Test C flooded paddy test plant response; conditions: Flood, 250 g ai/ha; scale of 0 to 100 where 0 is no effect and 100 is complete control; 13 to 15 days
Experimental: as §3

[15] = 125 g ai/ha, postemergence, 0 to 100 scale, 0 no effect, 100 complete control
[16] = Postemergence, 31 g ai/ha, 0 to 100 scale (0 no effect, 100 complete control)
[17] = 31 g ai/ha, Preemergence, 0 to 100 scale where 0 is no effect and 100 is complete control
[18] = Preemergence, 125 g ai/ha, 0 to 100 scale (0 no effect, 100 complete control)
[19] = 31 g ai/ha, Postemergence, 0 to 100 scale, 0 no effect, 100 complete control
[20] = Preemergence, 125 g ai/ha, 0 to 100 scale where 0 is no effect and 100 is complete control
[21] = Postemergence, 500 g ai/ha, 0 to 100 scale (0 no effect, 100 complete control)
[22] = Preemergence, 500 g ai/ha, 0 to 100 scale where 0 is no effect and 100 is complete control

CCOC(=O)c1cc(-c2ccccc2Oc2ncc(Cl)cn2)on1 [Compound 225]
0: Plant response rating, Blackgrass [1, 15] | Plant response rating, Blackgrass [1, 16] | Plant response rating, Galium [2, 15] | Plant response rating, Galium [2, 16] | Plant response rating, Corn [3, 15] | Plant response rating, Corn [3, 16] | Plant response rating, Kochia [4, 17] | Plant response rating, Kochia [4, 15] | Plant response rating, Kochia [4, 16] | Kochia plant response rating [4, 18] | Plant response rating, Ragweed [5, 17] | Plant response rating, Ragweed [5, 15] | Plant response rating, Ragweed [5, 16] | Ragweed plant response rating [5, 18] | Plant response rating, Pigweed [6, 17] | Plant response rating, Pigweed [6, 15] | Plant response rating, Pigweed [6, 16] | Pigweed plant response rating [6, 18] | Plant response rating, Ryegrass, Italian [7, 17] | Plant response rating, Ryegrass, Italian [7, 15] | Plant response rating, Ryegrass, Italian [7, 16] | Ryegrass, Italian plant response rating [7, 18] | Plant response rating, Foxtail, Giant [8, 17] | Plant response rating, Foxtail, Giant [8, 15] | Plant response rating, Foxtail, Giant [8, 16] | Foxtail, Giant plant response rating [8, 18] | Plant response rating, Wheat [9, 15] | Plant response rating, Wheat [9, 16] | Plant response rating, Barnyardgrass [10, 17] | Plant response rating, Barnyardgrass [10, 15] | Plant response rating, Barnyardgrass [10, 16] | Barnyardgrass plant response rating [10, 18] | Sedge, Umbrella plant response rating [11] | Rice plant response rating [12] | Barnyardgrass plant response rating [13] | Ducksalad plant response rating [14]

CC(C)(F)c1cc(-c2ccccc2Oc2ncc(Cl)cn2)no1 [Compound 236]
80: Barnyardgrass plant response rating [10, 18]
60: Plant response rating, Pigweed [6, 17]
40: Plant response rating, Blackgrass [1, 15] | Sedge, Umbrella plant response rating [11]
90: Plant response rating, Kochia [4, 15] | Foxtail, Giant plant response rating [8, 18]
70: Plant response rating, Pigweed [6, 15]
0: Plant response rating, Corn [3, 16] | Plant response rating, Ragweed [5, 17] | Plant response rating, Ragweed [5, 16] | Ragweed plant response rating [5, 18] | Plant response rating, Ryegrass, Italian [7, 17] | Plant response rating, Ryegrass, Italian [7, 16] | Plant response rating, Foxtail, Giant [8, 16] | Plant response rating, Wheat [9, 16] | Plant response rating, Barnyardgrass [10, 16] | Rice plant response rating [12] | Barnyardgrass plant response rating [13]
75: Ducksalad plant response rating [14]
30: Plant response rating, Galium [2, 16] | Plant response rating, Corn [3, 15] | Plant response rating, Kochia [4, 17] | Plant response rating, Pigweed [6, 16] | Ryegrass, Italian plant response rating [7, 18] | Plant response rating, Foxtail, Giant [8, 15] | Plant response rating, Barnyardgrass [10, 15]
100: Plant response rating, Galium [2, 15] | Kochia plant response rating [4, 18] | Pigweed plant response rating [6, 18]
10: Plant response rating, Foxtail, Giant [8, 17] | Plant response rating, Barnyardgrass [10, 17]
20: Plant response rating, Blackgrass [1, 16] | Plant response rating, Kochia [4, 16] | Plant response rating, Ragweed [5, 15] | Plant response rating, Ryegrass, Italian [7, 15] | Plant response rating, Wheat [9, 15]

Fc1ccc(-c2cc(C(F)(F)F)no2)c(Oc2ncc(Br)cn2)c1 [Compound 125]
50: Barnyardgrass plant response rating [10, 18]
40: Kochia plant response rating [4, 18]
90: Plant response rating, Pigweed [6, 15] | Foxtail, Giant plant response rating [8, 18] | Sedge, Umbrella plant response rating [11]
80: Plant response rating, Kochia [4, 15] | Pigweed plant response rating [6, 18] | Ducksalad plant response rating [14]
30: Plant response rating, Blackgrass [1, 15] | Plant response rating, Barnyardgrass [10, 15]
10: Plant response rating, Blackgrass [1, 19] | Plant response rating, Corn [3, 15] | Plant response rating, Ryegrass, Italian [7, 15] | Ryegrass, Italian plant response rating [7, 18] | Plant response rating, Foxtail, Giant [8, 17] | Plant response rating, Barnyardgrass [10, 19]
100: Plant response rating, Galium [2, 15]
20: Plant response rating, Ragweed [5, 15] | Plant response rating, Foxtail, Giant [8, 15]
0: Plant response rating, Corn [3, 19] | Plant response rating, Kochia [4, 17] | Plant response rating, Ragweed [5, 17] | Ragweed plant response rating [5, 18] | Plant response rating, Pigweed [6, 17] | Plant response rating, Ryegrass, Italian [7, 17] | Plant response rating, Foxtail, Giant [8, 19] | Plant response rating, Wheat [9, 15] | Plant response rating, Barnyardgrass [10, 17] | Rice plant response rating [12] | Barnyardgrass plant response rating [13]

Cn1ncnc1-c1ccccc1Oc1ncc(Cl)cn1 [Compound 117]
0: Plant response rating, Blackgrass [1, 19] | Plant response rating, Blackgrass [1, 15] | Plant response rating, Galium [2, 19] | Plant response rating, Galium [2, 15] | Plant response rating, Corn [3, 19] | Plant response rating, Corn [3, 15] | Plant response rating, Kochia [4, 19] | Plant response rating, Kochia [4, 17] | Plant response rating, Kochia [4, 15] | Plant response rating, Kochia [4, 20] | Plant response rating, Ragweed [5, 19] | Plant response rating, Ragweed [5, 17] | Plant response rating, Ragweed [5, 15] | Plant response rating, Pigweed [6, 19] | Plant response rating, Pigweed [6, 17] | Plant response rating, Pigweed [6, 15] | Plant response rating, Ryegrass, Italian [7, 19] | Plant response rating, Ryegrass, Italian [7, 17] | Plant response rating, Ryegrass, Italian [7, 15] | Plant response rating, Foxtail, Giant [8, 19] | Plant response rating, Foxtail, Giant [8, 17] | Plant response rating, Foxtail, Giant [8, 15] | Plant response rating, Foxtail, Giant [8, 20] | Plant response rating, Wheat [9, 19] | Plant response rating, Wheat [9, 15] | Plant response rating, Barnyardgrass [10, 19] | Plant response rating, Barnyardgrass [10, 17] | Plant response rating, Barnyardgrass [10, 15] | Plant response rating, Barnyardgrass [10, 20] | Sedge, Umbrella plant response rating [11] | Rice plant response rating [12] | Barnyardgrass plant response rating [13] | Ducksalad plant response rating [14]

Clc1cnc(Oc2ccccc2-c2ccc(Br)s2)nc1 [Compound 181]
0: Plant response rating, Blackgrass [1, 15] | Kochia plant response rating [4, 18] | Plant response rating, Kochia [4, 22] | Ragweed plant response rating [5, 18] | Plant response rating, Ragweed [5, 22] | Plant response rating, Ryegrass, Italian [7, 15] | Plant response rating, Ryegrass, Italian [7, 21] | Ryegrass, Italian plant response rating [7, 18] | Plant response rating, Ryegrass, Italian [7, 22] | Plant response rating, Foxtail, Giant [8, 15] | Foxtail, Giant plant response rating [8, 18] | Plant response rating, Wheat [9, 15] | Plant response rating, Wheat [9, 21] | Barnyardgrass plant response rating [10, 18] | Sedge, Umbrella plant response rating [11] | Rice plant response rating [12] | Barnyardgrass plant response rating [13] | Ducksalad plant response rating [14]
10: Plant response rating, Blackgrass [1, 21] | Plant response rating, Galium [2, 15] | Plant response rating, Corn [3, 15] | Plant response rating, Corn [3, 21] | Plant response rating, Ragweed [5, 15] | Plant response rating, Ragweed [5, 21] | Pigweed plant response rating [6, 18] | Plant response rating, Barnyardgrass [10, 15] | Plant response rating, Barnyardgrass [10, 22]
30: Plant response rating, Kochia [4, 15]
20: Plant response rating, Foxtail, Giant [8, 21] | Plant response rating, Barnyardgrass [10, 21]
90: Plant response rating, Pigweed [6, 21]
80: Plant response rating, Pigweed [6, 22]
50: Plant response rating, Galium [2, 21] | Plant response rating, Kochia [4, 21] | Plant response rating, Pigweed [6, 15]
40: Plant response rating, Foxtail, Giant [8, 22]
